# Assay results published in patent US20230025600A1, “TREATMENT OF CANCERS WITH ANTIBODY DRUG CONJUGATES (ADC) THAT BIND TO 191P4D12 PROTEINS” (AGENSYS, INC., priority 2019, published 2023).
# Square brackets hold non-standard residues; d marks the D form. Peptide text beside a SMILES is read from it. * marks the point of attachment. Dolaproine = CO[C@@H]([C@@H]1CCCN1)[C@@H](C)C(=O)O; Dil = CC[C@H](C)[C@H](NC)[C@@H](CC(=O)O)OC; X1 = C[C@@H](N*)[C@@H](O)c1ccccc1; NMeV = CN[C@H](C(=O)O)C(C)C
# How the values were obtained:
# [1] = target: T1, CYP3A4 (Homo sapiens, UniProt P08684); test: Metabolism in vitro; assay type: in vitro ADME
# T1 construct: from tissue; host or cells: human subjects in vivo (endogenous enzyme)
# T1 sequence (P08684 whole entry): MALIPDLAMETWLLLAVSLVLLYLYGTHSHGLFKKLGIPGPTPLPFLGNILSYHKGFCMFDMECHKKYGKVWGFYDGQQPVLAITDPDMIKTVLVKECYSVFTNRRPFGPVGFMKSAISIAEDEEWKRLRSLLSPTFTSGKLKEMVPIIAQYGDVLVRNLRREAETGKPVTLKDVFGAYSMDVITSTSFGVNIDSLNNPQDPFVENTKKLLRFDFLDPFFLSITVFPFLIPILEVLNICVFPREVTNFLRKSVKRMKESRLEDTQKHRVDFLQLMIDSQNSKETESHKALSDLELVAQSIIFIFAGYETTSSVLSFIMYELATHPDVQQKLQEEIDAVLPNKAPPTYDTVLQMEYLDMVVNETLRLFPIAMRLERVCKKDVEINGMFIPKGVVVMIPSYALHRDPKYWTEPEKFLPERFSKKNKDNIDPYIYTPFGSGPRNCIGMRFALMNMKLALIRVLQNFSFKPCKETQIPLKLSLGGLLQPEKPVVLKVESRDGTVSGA
# From the text: Enfortumab vedotin-ejfv catabolism has not been studied in humans; however, it is expected to undergo catabolism to small peptides, amino acids, unconjugated MMAE, and unconjugated MMAE-related catabolites.
# [2] = system: bacterial reverse mutation; test: Bacterial reverse mutation assay (Ames test); assay type: cell-based
# From the text: (§1) MMAE was genotoxic in the rat bone marrow micronucleus study through an aneugenic mechanism. This effect is consistent with the pharmacological effect of MMAE as a microtubule-disrupting agent. MMAE was not mutagenic in the bacterial reverse mutation assay (Ames test) or the L5178Y mouse lymphoma forward mutation assay.
# [3] = system: rat bone marrow; test: Rat bone marrow micronucleus study; assay type: in vivo; details: aneugenic mechanism
# From the text: as §1
# [4] = system: L5178Y mouse lymphoma; test: L5178Y mouse lymphoma forward mutation assay; assay type: cell-based
# From the text: as §1
# [5] = Population pharmacokinetic analysis in patients; assay type: in vivo, human
# From the text: Population pharmacokinetic analysis included data from 369 patients based on three Phase 1 studies and one Phase 2 study. Enfortumab vedotin-ejfv pharmacokinetics were characterized after single and multiple doses in patients with locally advanced or metastatic urothelial carcinoma and other solid tumors.
# Steady-state concentrations of ADC and MMAE were reached after 1 treatment cycle.
# [6] = target: P-glycoprotein (P-gp) (Homo sapiens, UniProt P08183); test: Transporter systems in vitro; assay type: in vitro ADME
# Sequence of P-glycoprotein (P-gp) (P08183 whole entry): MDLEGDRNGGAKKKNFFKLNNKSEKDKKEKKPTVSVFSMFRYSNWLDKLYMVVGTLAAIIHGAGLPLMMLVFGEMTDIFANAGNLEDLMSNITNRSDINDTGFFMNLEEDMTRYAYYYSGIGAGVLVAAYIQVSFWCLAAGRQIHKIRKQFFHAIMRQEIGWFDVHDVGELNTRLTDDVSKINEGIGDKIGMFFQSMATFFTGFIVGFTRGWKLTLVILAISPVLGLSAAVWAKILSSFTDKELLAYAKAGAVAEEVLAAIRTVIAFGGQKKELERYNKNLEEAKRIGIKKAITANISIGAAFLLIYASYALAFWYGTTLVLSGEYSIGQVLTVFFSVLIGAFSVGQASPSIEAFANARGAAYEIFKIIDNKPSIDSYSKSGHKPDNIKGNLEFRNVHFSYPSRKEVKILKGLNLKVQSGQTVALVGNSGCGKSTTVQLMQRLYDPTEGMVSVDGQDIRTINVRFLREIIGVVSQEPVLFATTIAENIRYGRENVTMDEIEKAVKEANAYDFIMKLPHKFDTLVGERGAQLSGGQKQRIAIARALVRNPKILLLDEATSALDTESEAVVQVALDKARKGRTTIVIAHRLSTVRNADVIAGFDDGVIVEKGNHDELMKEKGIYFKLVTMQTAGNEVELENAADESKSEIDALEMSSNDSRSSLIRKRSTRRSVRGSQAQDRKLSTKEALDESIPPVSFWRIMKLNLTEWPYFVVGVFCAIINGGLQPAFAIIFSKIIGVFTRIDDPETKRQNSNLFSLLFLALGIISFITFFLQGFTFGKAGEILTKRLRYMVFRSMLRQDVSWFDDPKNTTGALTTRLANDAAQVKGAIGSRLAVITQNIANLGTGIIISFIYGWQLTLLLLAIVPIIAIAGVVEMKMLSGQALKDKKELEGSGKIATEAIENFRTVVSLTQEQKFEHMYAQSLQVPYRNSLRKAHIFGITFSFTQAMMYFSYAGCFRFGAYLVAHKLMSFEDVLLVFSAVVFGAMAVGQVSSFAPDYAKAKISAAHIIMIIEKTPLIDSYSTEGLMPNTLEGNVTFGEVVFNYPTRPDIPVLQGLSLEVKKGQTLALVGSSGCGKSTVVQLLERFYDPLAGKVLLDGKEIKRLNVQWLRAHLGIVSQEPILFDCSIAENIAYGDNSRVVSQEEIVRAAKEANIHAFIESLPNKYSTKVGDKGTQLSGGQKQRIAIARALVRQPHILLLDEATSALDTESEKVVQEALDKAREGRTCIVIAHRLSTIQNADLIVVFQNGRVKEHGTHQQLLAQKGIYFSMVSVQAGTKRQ
# [7] = system: acute myeloid leukemia (AML) at relapse; details: administered alone; cited from earlier work
# [8] = system: human lung cancer xenograft AG-L4; test: Efficacy in subcutaneous established human lung cancer xenograft AG-L4 in SCID mice; assay type: in vivo; details: 10 mg/kg every seven days for two doses, intravenous bolus; tumors about 200 mm^3 at start; compared to control ADC
# Procedure: In another experiment, patient-derived lung cancer xenograft AG-L4 was maintained by serial passages in SCID mice. Stock tumors were harvested sterilely and minced into 1 mm^3 pieces. Six (6) pieces were implanted into the flank of individual SCID mice. Tumors were allowed to grow untreated until they reached an approximate volume of 200 mm^3. The Ha22-2(2,4)6.1vcMMAE and the control ADC were dosed at 10 mg/kg every seven (7) days for two doses by intravenous bolus injection. The amount of ADC administered was based on the individual body weight of each animal obtained immediately prior to dosing. Tumor growth was monitored using caliper measurements every 3 to 4 days. Tumor volume was calculated as Width^2×Length/2, where width is the smallest dimension and length is the largest dimension.
# [9] = system: human breast cancer xenograft BT-483; test: Efficacy in subcutaneous established human breast cancer xenograft BT-483 in SCID mice; assay type: in vivo; details: 5 mg/kg every four days for four doses, intravenous bolus; tumors about 100 mm^3 at start; compared to control ADC
# Procedure: In this experiment, human breast cancer BT-483 cells were used to generate stock xenografts, which were maintained by serial passages in SCID mice. Stock tumors were harvested sterilely and minced into 1 mm^3 pieces. Six (6) pieces were implanted into the flank of individual SCID mice. Tumors were allowed to grow untreated until they reached an approximate volume of 100 mm^3. The Ha22-2(2,4)6.1vcMMAE and the control ADC were dosed at 5 mg/kg every four (4) days for four (4) doses by intravenous bolus injection. The amount of ADC administered was based on the individual body weight of each animal obtained immediately prior to dosing. Tumor growth was monitored using caliper measurements every 3 to 4 days. Tumor volume was calculated as Width^2×Length/2, where width is the smallest dimension and length is the largest dimension.
# [10] = unconjugated MMAE, after first treatment cycle of 1.25 mg/kg, Days 1, 8 and 15
compound,measurement,setting,value
"CC[C@H](C)[C@@H]([C@@H](CC(=O)N1CCC[C@H]1[C@H](OC)[C@@H](C)C(=O)N[C@H](C)[C@@H](O)c1ccccc1)OC)N(C)C(=O)[C@@H](NC(=O)[C@@H](NC)C(C)C)C(C)C [MMAE, monomethyl auristatin E] (H-[NMeV]V[Dil][Dolaproine]-X1)",metabolism in vitro,[1],primarily metabolized by CYP3A4
same,mutagenicity in Ames test,[2],not mutagenic
same,genotoxicity in rat bone marrow micronucleus study,[3],genotoxic
same,mutagenicity in L5178Y mouse lymphoma forward mutation assay,[4],not mutagenic
same,"exposure (AUC) in mild, moderate or severe renal impairment","[5]; 1.25 mg/kg, compared to normal renal function",No significant differences
same,AUC increase in mild hepatic impairment,"[5]; n=31, compared to normal hepatic function, population pharmacokinetics analysis",48%
same,accumulation following repeat administration,[5]; patients,Minimal accumulation
same,elimination of MMAE,[5]; patients,limited by its rate of release from enfortumab vedotin-ejfv
same,mean clearance (CL),[5]; patients,2.7 L/h
same,steady-state concentrations reached after,[5]; patients,1 treatment cycle
same,time of peak MMAE concentrations after enfortumab vedotin-ejfv dosing,[5]; patients,approximately 2 days
same,elimination half-life,"[5]; patients, multi-exponential declines",2.4 days
same,"AUC0-28 d, Mean (±SD)",[5]; [10],69 (42) ng · d/mL
same,"Cmax, Mean (±SD)",[5]; [10],4.8 (2.7) ng/mL
same,"Ctrough, 0-28 d (pre-dose concentration on day 28), Mean (±SD)",[5]; [10],0.57 (0.58) ng/mL
same,P-gp inhibition,[6],not an inhibitor
same,P-gp substrate,[6],substrate
"CT-011: anti-PD-1 antibody, a humanized antibody",response in acute myeloid leukemia (AML) at relapse,[7],failed to show response
"Ha22-2(2,4)6.1-vcMMAE: 191P4D12 ADC: antibody Ha22-2(2,4)6.1 (murine hybridoma cell line-derived) conjugated to MMAE via vc linker",growth of AG-L4 lung cancer xenografts,[8],significantly inhibited
same,growth of BT-483 breast tumor xenografts,[9],significantly inhibited
